Bounds are passed on as bounds.

These results are taken from US10125121B2, “FYN kinase inhibitors” (ROTTAPHARM BIOTECH S.R.L., priority 2015, dated 2018).

Assay [1] concerns the target active FYN (human recombinant, 62.7 kDa) (Homo sapiens, UniProt P06241). As to the kind of experiment: In vitro kinase assay (Z′-LYTE FRET). The assay is classed as biochemical. The note with it: read-out: IC50(nM) FYN INHIBITION
As to the method: Assays to determine the kinase inhibitory activity of compounds were performed using an automatic liquid handling device (Microlab STAR Hamilton) and Z′-LYTE™ Kinase Assay Platform, a Fluorescence Resonance Energy Transfer (FRET)-based assay platform compatible with high-throughput screening (HTS) applications. The assay employs a fluorescence-based, coupled-enzyme format and utilizes the differential sensitivity of phosphorylated and non-phosphorylated peptides to proteolytic cleavage.
All reagents were diluted in reaction buffer and the kinase reaction was carried out in a total volume of 10 μl, for 60 minutes at 25° C. The 0% Phosphorylation (i.e. no ATP) and 100% Phosphorylation (i.e. synthetically phosphorylated peptide supplied) Assay Controls, included in each plate, allowed to calculate the percent phosphorylation achieved in the specific reaction well. The 0% Inhibition and 0% Phosphorylation (i.e. 100% Inhibition) Controls define the dynamic range in the screen. At the end of incubation, a secondary reaction (the Development Reaction) started by adding 5 μl of Development Reagent, containing a site-specific protease that recognizes and cleaves non-phosphorylated peptides, and was interrupted after 60 minutes with 5 μl/sample of Stop Reagent.
The compounds were tested in a range of concentrations 10^−6-10^−9 M.
Results are expressed as percentage of inhibition and the IC50 values were calculated by non-linear curve fitting using GraphPad™ Prism software.

Assay [2] deals with NF-kB activation in JB6 CI 41-5a (P+) cells. The assay can be described thus: Gene reporter (GR) assay, NF-kB luciferase after TNFα stimulation. Particulars: Mus musculus; 1 h pre-treatment, 2 ng/ml TNFα for 4 h; read-out: IC50(nM) GR Inhibition. Format: cell-based, murine. The text has this:
To determine if the compounds of the invention were active also in a cellular model, a gene reporter assay was established in a cell line (JB6 CI 41-5a (P+)) know to activate Fyn kinase via an inflammatory stimuli (TNFα). GR assay measures the activation of the nuclear transcription factor NF-kB, situated down-stream the Fyn activation pathway. Products active in this analysis has to penetrate in the cell and inhibit the activation pathway of NF-kB.
The murine epithelial cell line JB6 CI 41-5a (P+) (ATCC® Cat. # CRL-2010) was stably transfected with the pGL4.32[luc2P/NFkB-RE/Hygro] vector (Promega). Clonal selection was achieved by limiting dilution in MEM (+Earle's BSS+1.5 g/l sodium bicarbonate+0.1 mM NEAA)+GlutaMAX™-I, +1 mM sodium pyruvate, +5% FBS+80 μg/ml Hygromycin B. The clones were tested for their response to TNFα stimulus. The obtained transfected cells (JB6(P+) NFkB-RE-luc2P T3-C10) contained a firefly luciferase gene (luc2P) under the control of minimal TATA promoter with multiple Nuclear Factor-kB response elements (NFkB-REs). These NFkB-REs are DNA binding sequences for the NF-kB transcription factor.
JB6(P+) NFkB-RE-luc2P T3-C10 cells were used for the analysis of NF-kB activity modulation, after TNFα stimulation, by Fyn-inhibitors (Hwang et al.; Biochem. Pharmacol. 2009, 77 (7):1213-22).
6000 cells/well were plated in a 96× well plate. After 24 h new medium without antibiotics was given. After further 24 h the cells were pre-treated with the different compounds for 1 h and then stimulated with 2 ng/ml TNFα for 4 h. In each experiments two positive standards were always used, and each tested condition was analyzed in quadruplicate.
The luciferase analysis was performed with ONE-Glo™+ToxLuciferase Reporter and Cell Viability Assay kit (Promega). This assay combined luciferase assay chemistry with a cell viability marker to better understand reporter gene expression in the context of cell health. The assay uses a two-step process. The first part of the assay was a non-lytic fluorescence assay (CellTiter-Fluor™ Cell Viability Assay) that measured the relative number of live cells in a culture population, as it measures a conserved and constitutive protease activity within live cells. The live-cell protease activity was restricted to intact viable cells and was measured using a fluorogenic, cell-permeant peptide substrate (glycyl-phenylalanyl-aminofluorocoumarin; GF-AFC). The generated fluorescent signal, proportional to the number of living cells, was measured with EnVision microplate reader (PerkinElmer) using an excitation wavelength of 400 nm and emission wavelength of 500 nm.
The second part of the assay uses the ONE-Glo™ Luciferase Assay System to quantify firefly luciferase reporter gene expression. The ONE-Glo™ Assay contained a fluoro-luciferin substrate, more tolerant to sample components than standard luciferase assay reagents. Luminescence was measured with EnVision microplate reader (PerkinElmer).
Compounds of Formula (I) were tested for their capacity to penetrate into the cell and inhibit the activation pathway of NF-kB.

Chain of active FYN (human recombinant, 62.7 kDa) (P06241 whole entry): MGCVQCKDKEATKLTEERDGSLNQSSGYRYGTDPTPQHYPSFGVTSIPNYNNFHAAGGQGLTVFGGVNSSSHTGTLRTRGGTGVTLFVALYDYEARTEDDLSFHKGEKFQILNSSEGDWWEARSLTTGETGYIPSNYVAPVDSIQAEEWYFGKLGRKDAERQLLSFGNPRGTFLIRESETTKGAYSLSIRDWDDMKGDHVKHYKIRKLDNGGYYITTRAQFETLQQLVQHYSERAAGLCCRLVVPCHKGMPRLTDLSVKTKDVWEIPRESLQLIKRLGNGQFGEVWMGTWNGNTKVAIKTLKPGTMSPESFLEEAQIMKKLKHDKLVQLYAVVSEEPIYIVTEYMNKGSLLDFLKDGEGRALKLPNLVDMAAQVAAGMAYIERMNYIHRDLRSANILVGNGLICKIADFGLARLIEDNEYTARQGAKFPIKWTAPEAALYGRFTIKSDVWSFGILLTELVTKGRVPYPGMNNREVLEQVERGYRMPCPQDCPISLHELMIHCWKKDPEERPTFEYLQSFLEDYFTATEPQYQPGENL

As to `Cc1ccccc1C(=O)Nc1ccc(CN2CCN(c3nccc(Nc4cc(C5CC5)[nH]n4)n3)CC2)cc1` [Compound 4, N-(4-((4-(4-((5-cyclopropyl-1H-pyrazol-3-yl)amino)pyrimidin-2-yl)piperazin-1-yl)methyl)phenyl)-2-methylbenzamide], the IC50 in assay [1] turned out to be 17 nM; in assay [2] it was 788 nM.

Turning to `O=C(Nc1ccc(CN2CCN(c3nccc(Nc4cc(C5CC5)[nH]n4)n3)CC2)cc1)c1ccccc1OC(F)(F)F` [Compound 8, N-(4-((4-(4-((5-cyclopropyl-1H-pyrazol-3-yl)amino)pyrimidin-2-yl)piperazin-1-yl)methyl)phenyl)-2-(trifluoromethoxy)benzamide], the IC50 was found to be 39 nM in assay [1] and 766 nM in assay [2].

As for `O=C(Nc1ccc(CN2CCN(c3nccc(Nc4cc(C5CC5)[nH]n4)n3)CC2)cc1)c1cccc(F)c1C(F)(F)F` [Compound 12, N-(4-((4-(4-((5-cyclopropyl-1H-pyrazol-3-yl)amino)pyrimidin-2-yl)piperazin-1-yl)methyl)phenyl)-3-fluoro-2-(trifluoromethyl)benzamide], the IC50 was 29 nM in assay [1] and 430 nM in assay [2].

Regarding `O=C(Nc1ccc(CN2CCN(c3nccc(Nc4cc(C5CC5)[nH]n4)n3)CC2)cc1)c1c(F)cccc1C(F)(F)F` [Compound 13, N-(4-((4-(4-((5-cyclopropyl-1H-pyrazol-3-yl)amino)pyrimidin-2-yl)piperazin-1-yl)methyl)phenyl)-2-fluoro-6-(trifluoromethyl)benzamide], the IC50 in assay [1] was 23 nM; in assay [2], 493 nM.

Turning to `O=C(Nc1ccc(CN2CCN(c3nccc(Nc4cc(C5CC5)[nH]n4)n3)CC2)cc1)c1ccc(F)cc1C(F)(F)F` [Compound 14, N-(4-((4-(4-((5-cyclopropyl-1H-pyrazol-3-yl)amino)pyrimidin-2-yl)piperazin-1-yl)methyl)phenyl)-4-fluoro-2-(trifluoromethyl)benzamide], the IC50 came to 16 nM in assay [1] and 603 nM in assay [2].

For the molecule `Cc1cc(CN2CCN(c3nccc(Nc4cc(C5CC5)[nH]n4)n3)CC2)ccc1NC(=O)c1ccccc1F` [Compound 17, N-(4-((4-(4-((5-cyclopropyl-1H-pyrazol-3-yl)amino)pyrimidin-2-yl)piperazin-1-yl)methyl)-2-methylphenyl)-2-fluorobenzamide], the IC50 is 30 nM in assay [1] and above 2000 nM in assay [2].

As for `CCc1cc(CN2CCN(c3nc(C)cc(Nc4cc(C5CC5)[nH]n4)n3)CC2)ccc1NC(=O)c1ccccc1F` [Compound 18, N-(4-((4-(4-((5-cyclopropyl-1H-pyrazol-3-yl)amino)-6-methylpyrimidin-2-yl)piperazin-1-yl)methyl)-2-ethylphenyl)-2-fluorobenzamide], the IC50 in assay [1] stood at 94 nM; in assay [2], 1370 nM.

Take `Cc1nc(C(=O)Nc2ccc(CN3CCN(c4nccc(Nc5cc(C6CC6)[nH]n5)n4)CC3)cc2)c(C(F)(F)F)o1` [Compound 21, N-(4-((4-(4-((5-cyclopropyl-1H-pyrazol-3-yl)amino)pyrimidin-2-yl)piperazin-1-yl)methyl)phenyl)-2-methyl-5-(trifluoromethyl)oxazole-4-carboxamide]: the figures for the IC50 in assay [1] and in assay [2] were 42 nM and 854 nM, respectively.

`Cc1nocc1C(=O)Nc1ccc(CN2CCN(c3nccc(Nc4cc(C5CC5)[nH]n4)n3)CC2)cc1` [Compound 23, N-(4-((4-(4-((5-cyclopropyl-1H-pyrazol-3-yl)amino)pyrimidin-2-yl)piperazin-1-yl)methyl)phenyl)-3-methylisoxazole-4-carboxamide]: the results for the IC50 in assay [1] and in assay [2] were 103 nM and 1930 nM, respectively.

In the case of `O=C(Nc1ccc(CN2CCN(c3nccc(Nc4cc(C5CC5)[nH]n4)n3)CC2)cc1)c1cccnc1C(F)(F)F` [Compound 27, N-(4-((4-(4-((5-cyclopropyl-1H-pyrazol-3-yl)amino)pyrimidin-2-yl)piperazin-1-yl)methyl)phenyl)-2-(trifluoromethyl)-nicotinamide], the IC50 in assay [1] came to 27 nM; in assay [2], 1340 nM.

Consider `O=C(Nc1ccc(CN2CCN(c3nccc(Nc4cc(C5CC5)[nH]n4)n3)CC2)cc1)c1cnccc1C(F)(F)F` [Compound 29, N-(4-((4-(4-((5-cyclopropyl-1H-pyrazol-3-yl)amino)pyrimidin-2-yl)piperazin-1-yl)methyl)phenyl)-4-(trifluoromethyl)-nicotinamide], for which the IC50 is 8 nM in assay [1] and 973 nM in assay [2].

For `O=C(Nc1ccc(CN2CCN(c3nccc(Nc4cc(C5CC5)[nH]n4)n3)CC2)cc1)c1ccncc1C(F)(F)F` [Compound 32, N-(4-((4-(4-((5-cyclopropyl-1H-pyrazol-3-yl)amino)pyrimidin-2-yl)piperazin-1-yl)methyl)phenyl)-3-(trifluoromethyl)-isonicotinamide], the IC50 in assay [1] amounted to 17 nM; in assay [2], 1000 nM.

`O=C(Nc1ccc(CN2CCN(c3nccc(Nc4nnc(C5CC5)o4)n3)CC2)cc1)c1ccccc1C(F)(F)F` [Compound 44, N-(4-((4-(4-((5-cyclopropyl-1,3,4-oxadiazol-2-yl)amino)pyrimidin-2-yl)piperazin-1-yl)methyl)phenyl)-2-(trifluoromethyl)benzamide]: in assay [1], the IC50 is above 1000 nM.

As for `COc1ccnc(Nc2ccnc(N3CCN(Cc4ccc(NC(=O)c5ccccc5C(F)(F)F)cc4)CC3)n2)c1` [Compound 45, N-(4-((4-(4-((4-methoxypyridin-2-yl)amino)pyrimidin-2-yl)piperazin-1-yl)methyl)phenyl)-2-(trifluoromethyl)benzamide], the IC50 in assay [1] is 441 nM.

For `Cc1cc(Nc2cc(C3CC3)n[nH]2)nc(N2CCN(Cc3ccc(NC(=O)c4ccccc4C(F)(F)F)cc3)CC2)n1` [Compound 46, N-(4-((4-(4-((5-cyclopropyl-1H-pyrazol-3-yl)amino)-6-methylpyrimidin-2-yl)piperazin-1-yl)methyl)phenyl)-2-(trifluoromethyl)benzamide], the IC50 in assay [1] was determined as 29 nM.

`Cc1cc(Nc2ccnc(N3CCN(Cc4ccc(NC(=O)c5ccccc5C(F)(F)F)cc4)CC3)n2)[nH]n1` [Compound 47, N-(4-((4-(4-((3-methyl-1H-pyrazol-5-yl)amino)pyrimidin-2-yl)piperazin-1-yl)methyl)phenyl)-2-(trifluoromethyl)benzamide]: the IC50 in assay [1] was found to be 41 nM.

Consider `CC1CCCN1C(=O)Nc1ccc(CN2CCN(c3nccc(Nc4cc(C5CC5)[nH]n4)n3)CC2)cc1` (stereo not drawn) [Compound 48, N-(4-((4-(4-((5-cyclopropyl-1H-pyrazol-3-yl)amino)pyrimidin-2-yl)piperazin-1-yl)methyl)phenyl)-2-methylpyrrolidine-1-carboxamide], for which, in assay [1], the IC50 came to 37 nM.

Consider `O=C(Nc1ccc(CN2CCN(c3nccc(Nc4cc(C5CC5)[nH]n4)n3)CC2)cc1)NC1CCCC1` [Compound 49, 1-cyclopentyl-3-(4-((4-(4-((3-cyclopropyl-1H-pyrazol-5-yl)amino)pyrimidin-2-yl)piperazin-1-yl)methyl)phenyl)urea], for which the IC50 in assay [1] came out at 69 nM.
